From ChEMBL document CHEMBL3734659, “Identification of tris-(phenylalkyl)amines as new selective h5-HT2Breceptor antagonists” (Medchemcomm, 2015)
Activity calls are given as the source filed them. The calls are words filed in the database; no cut-off is given here.

Tests used:
[1] = biological target: Kappa-type opioid receptor (Homo sapiens, UniProt P41145); assay: Displacement of [3H]U69593 from human kappa-opioid receptor stably expressed in HEK cell membrane after 90 mins by scintillation counting method; format: cell membranes, HEK293
D(2) dopamine receptor = D(2) dopamine receptor (Homo sapiens, UniProt P14416); assay: Displacement of [3H]N-methylspiperone from human recombinant dopamine D2 receptor expressed in stable fibroblast after 90 mins by scintillation counting method
[2] = biological target: Translocator protein (Rattus norvegicus) (UniProt P16257); assay: Displacement of [3H]PK11195 from rat brain PBR after 90 mins by scintillation counting method
[3] = biological target: Muscarinic acetylcholine receptor M3 (Homo sapiens) (UniProt P20309); assay: Displacement of [3H]QNB from human Muscarinic acetylcholine M3 receptor stably expressed in CHO cell after 90 mins by scintillation counting method; format: cell-based
[4] = biological target: Alpha-2A adrenergic receptor (Homo sapiens, UniProt P08913); assay: Displacement of [3H]Rauwolscine from human recombinant alpha 2A receptor stably expressed in MDCK cells after 90 mins by scintillation counting method; format: cell-based
[5] = biological target: 5-hydroxytryptamine receptor 7 (Homo sapiens, UniProt P34969); assay: Displacement of [3H]LSD from human recombinant 5-HT7A receptor stably expressed in HEKT cell membrane after 90 mins by scintillation counting method; format: cell membranes
[6] = biological target: 5-hydroxytryptamine receptor 1E (Homo sapiens) (UniProt P28566); assay: Displacement of [3H]5-CT from human recombinant 5-HT1E receptor stably expressed in HEK cell membrane after 90 mins by scintillation counting method; format: cell membranes; details: HEK293
Mu-type opioid receptor = Mu-type opioid receptor (Homo sapiens, UniProt P35372); assay: Displacement of [3H]DAMGO from human mu-opioid receptor stably expressed in HEK cell membrane after 90 mins by scintillation counting method; format: cell membranes, HEK293
[7] = biological target: Muscarinic acetylcholine receptor M1 (Homo sapiens) (UniProt P11229); assay: Displacement of [3H]QNB from human Muscarinic acetylcholine M1 receptor stably expressed in CHO cell after 90 mins by scintillation counting method; format: cell-based
[8] = biological target: Beta-3 adrenergic receptor (Homo sapiens) (UniProt P13945); assay: Displacement of [3H]CGP12177 from human recombinant beta 3 receptor expressed in HEK Flp-In cells after 90 mins by scintillation counting method; format: cell-based; details: HEK293
[9] = biological target: Alpha-1D adrenergic receptor (Homo sapiens, UniProt P25100); assay: Displacement of [3H]Prazosin from human recombinant alpha 1D receptor after 90 mins by scintillation counting method
[10] = biological target: T1, 5-hydroxytryptamine receptor 2C (Homo sapiens) (UniProt P28335); assay: Agonist activity at human recombinant 5-HT2C receptor expressed in Flp-In HEK cells preincubated for 10 mins by FLIPR based calcium mobilization assay; format: functional, cell-based; details: HEK293
T1 sequence (whole entry): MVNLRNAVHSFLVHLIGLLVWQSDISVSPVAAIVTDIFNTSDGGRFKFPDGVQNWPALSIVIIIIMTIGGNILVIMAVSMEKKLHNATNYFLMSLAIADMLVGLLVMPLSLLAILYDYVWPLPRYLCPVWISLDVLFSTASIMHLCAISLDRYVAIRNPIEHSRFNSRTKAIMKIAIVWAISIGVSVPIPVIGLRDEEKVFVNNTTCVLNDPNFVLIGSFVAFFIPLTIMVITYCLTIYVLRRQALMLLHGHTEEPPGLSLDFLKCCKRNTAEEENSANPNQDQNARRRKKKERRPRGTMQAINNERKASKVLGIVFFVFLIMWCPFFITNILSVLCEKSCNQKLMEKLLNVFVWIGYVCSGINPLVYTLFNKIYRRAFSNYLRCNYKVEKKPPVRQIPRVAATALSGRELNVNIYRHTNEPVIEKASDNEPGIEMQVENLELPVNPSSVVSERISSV

[11] = biological target: T2, 5-hydroxytryptamine receptor 2A (Homo sapiens, UniProt P28223); assay: Agonist activity at human recombinant 5-HT2A receptor expressed in Flp-In HEK cells preincubated for 10 mins by FLIPR based calcium mobilization assay; format: functional, cell-based; details: HEK293
[12] = biological target: 5-hydroxytryptamine receptor 6 (Homo sapiens) (UniProt P50406); assay: Displacement of [3H]LSD from human recombinant 5-HT6 receptor stably expressed in HEK cell membrane by scintillation counting method; format: cell membranes; details: HEK293
[13] = Displacement of [3H]Pentazocine from Guinea pig sigma 1 receptor after 90 mins by scintillation counting method; design: species or system Cavia porcellus
[14] = biological target: Sodium-dependent dopamine transporter (Homo sapiens, UniProt Q01959); assay: Displacement of [3H]WIN35428 from human dopamine transporter stably expressed in HEK293 cells after 30 mins by neurotransmitter transporter uptake assay; format: cell-based
[15] = biological target: Beta-2 adrenergic receptor (Homo sapiens) (UniProt P07550); assay: Displacement of [3H]CGP12177 from human recombinant beta 2 receptor expressed in HEK Flp-In cells after 90 mins by scintillation counting method; format: cell-based; details: HEK293
HEK293 [16] = assay: Selectivity ratio of Ki for human recombinant 5-HT2C receptor to Ki for human recombinant 5-HT2B receptor stably expressed in HEK cell membrane; format: cell-based
HEK293 [17] = assay: Selectivity ratio of Ki for human recombinant 5-HT2A receptor expressed in HEKT cell membrane to Ki for human recombinant 5-HT2B receptor stably expressed in HEK cells; format: cell-based
[18] = biological target: Sodium-dependent serotonin transporter (Homo sapiens, UniProt P31645); assay: Displacement of [3H]Citalopram from human serotonin transporter transporter stably expressed in HEK293 cells after 30 mins by neurotransmitter transporter uptake assay; format: cell-based
[19] = biological target: Muscarinic acetylcholine receptor M2 (Homo sapiens) (UniProt P08172); assay: Displacement of [3H]QNB from human Muscarinic acetylcholine M2 receptor stably expressed in CHO cell after 90 mins by scintillation counting method; format: cell-based
[20] = Displacement of [3H]DTG from sigma 2 receptor stable expressed in rat PC12 cells after 90 mins by scintillation counting method; format: cell-based; details: pc-12
D(4) dopamine receptor = D(4) dopamine receptor (Homo sapiens, UniProt P21917); assay: Displacement of [3H]N-methylspiperone from human recombinant dopamine D4 receptor after 90 mins by scintillation counting method
[21] = biological target: 5-hydroxytryptamine receptor 1B (Homo sapiens) (UniProt P28222); assay: Displacement of [3H]5-CT from human recombinant 5-HT1B receptor stably expressed in HEK cell membrane after 90 mins by scintillation counting method; format: cell membranes; details: HEK293
Rattus norvegicus = organism: Rattus norvegicus; assay: Displacement of [3H]Muscimol from rat brain Gamma-aminobutyric acid type-A receptor after 90 mins by scintillation counting method
[22] = biological target: T3, 5-hydroxytryptamine receptor 2C (Homo sapiens, UniProt P28335); assay: Displacement of [3H]mesulergine from human recombinant 5-HT2C receptor expressed in Flp-IN HEK cell membrane after 90 mins by scintillation counting method; format: cell membranes, HEK293; details: read-out: Ki
T3 sequence (P28335 whole entry): T1 sequence (whole entry)

[23] = biological target: 5-hydroxytryptamine receptor 2B (Homo sapiens, UniProt P41595); assay: Antagonist activity at human recombinant 5-HT2B receptor expressed in Flp-In HEK cells in the presence of agonist preincubated for 10 mins by FLIPR based calcium mobilization assay; format: functional, cell-based, HEK293
[24] = biological target: 5-hydroxytryptamine receptor 1A (Homo sapiens, UniProt P08908); assay: Displacement of [3H]Way100635 from human recombinant 5-HT1A receptor stably expressed in CHO cell membrane after 90 mins by scintillation counting method; format: cell membranes
[25] = biological target: T2, 5-hydroxytryptamine receptor 2A; assay: Displacement of [3H]ketanserin from human recombinant 5-HT2A receptor expressed in HEKT cell membrane after 90 mins by scintillation counting method; format: cell-based

T2 sequence (P28223 whole entry): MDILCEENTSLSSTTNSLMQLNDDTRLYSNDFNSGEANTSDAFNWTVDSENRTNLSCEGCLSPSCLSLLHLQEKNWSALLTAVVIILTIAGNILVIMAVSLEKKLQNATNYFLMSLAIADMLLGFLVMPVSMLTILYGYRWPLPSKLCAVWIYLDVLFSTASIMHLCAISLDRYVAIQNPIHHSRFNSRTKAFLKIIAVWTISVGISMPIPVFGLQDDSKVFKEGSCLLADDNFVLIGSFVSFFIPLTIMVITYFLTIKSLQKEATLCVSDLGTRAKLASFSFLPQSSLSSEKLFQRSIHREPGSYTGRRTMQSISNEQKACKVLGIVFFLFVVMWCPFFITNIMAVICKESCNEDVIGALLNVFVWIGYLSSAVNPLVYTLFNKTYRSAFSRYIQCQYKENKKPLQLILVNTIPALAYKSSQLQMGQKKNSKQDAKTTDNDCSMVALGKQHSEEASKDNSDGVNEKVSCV
D(2) dopamine receptor, sequence (P14416 whole entry): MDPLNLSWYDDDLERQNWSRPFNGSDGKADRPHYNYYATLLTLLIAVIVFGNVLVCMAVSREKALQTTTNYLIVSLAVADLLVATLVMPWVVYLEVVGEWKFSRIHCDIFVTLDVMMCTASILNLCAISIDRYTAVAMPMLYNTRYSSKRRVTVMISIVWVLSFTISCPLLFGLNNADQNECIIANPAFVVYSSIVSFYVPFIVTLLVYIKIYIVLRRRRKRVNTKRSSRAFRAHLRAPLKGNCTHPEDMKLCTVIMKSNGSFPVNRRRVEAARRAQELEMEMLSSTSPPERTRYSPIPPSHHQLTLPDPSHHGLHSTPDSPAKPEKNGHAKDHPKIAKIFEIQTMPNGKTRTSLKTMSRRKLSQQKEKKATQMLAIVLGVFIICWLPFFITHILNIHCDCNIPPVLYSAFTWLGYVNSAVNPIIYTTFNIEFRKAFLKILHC
Beta-2 adrenergic receptor (Homo sapiens), sequence (P07550 whole entry, looked up): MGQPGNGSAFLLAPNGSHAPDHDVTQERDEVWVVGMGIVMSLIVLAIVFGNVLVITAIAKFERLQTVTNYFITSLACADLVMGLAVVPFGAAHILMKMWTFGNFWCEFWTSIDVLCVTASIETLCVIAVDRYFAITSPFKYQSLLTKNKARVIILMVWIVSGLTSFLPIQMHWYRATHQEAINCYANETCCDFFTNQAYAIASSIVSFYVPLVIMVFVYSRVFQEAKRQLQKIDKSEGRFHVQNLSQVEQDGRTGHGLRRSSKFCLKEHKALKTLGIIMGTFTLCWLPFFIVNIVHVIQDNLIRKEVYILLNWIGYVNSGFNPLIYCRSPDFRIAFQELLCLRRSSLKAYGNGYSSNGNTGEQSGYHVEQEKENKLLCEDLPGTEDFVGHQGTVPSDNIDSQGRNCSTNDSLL
5-hydroxytryptamine receptor 1A, sequence (P08908 whole entry): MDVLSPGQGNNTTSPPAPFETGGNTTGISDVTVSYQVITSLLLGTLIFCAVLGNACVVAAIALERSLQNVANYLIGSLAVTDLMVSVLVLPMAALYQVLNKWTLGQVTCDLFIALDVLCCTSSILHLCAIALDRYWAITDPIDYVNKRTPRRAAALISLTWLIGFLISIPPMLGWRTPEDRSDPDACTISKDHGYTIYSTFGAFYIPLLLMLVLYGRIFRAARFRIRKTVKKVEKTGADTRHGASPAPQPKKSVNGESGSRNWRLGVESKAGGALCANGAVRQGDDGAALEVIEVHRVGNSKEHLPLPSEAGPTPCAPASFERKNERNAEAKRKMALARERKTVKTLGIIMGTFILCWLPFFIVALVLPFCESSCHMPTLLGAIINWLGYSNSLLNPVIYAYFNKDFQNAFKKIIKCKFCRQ
5-hydroxytryptamine receptor 1E (Homo sapiens), sequence (P28566 whole entry): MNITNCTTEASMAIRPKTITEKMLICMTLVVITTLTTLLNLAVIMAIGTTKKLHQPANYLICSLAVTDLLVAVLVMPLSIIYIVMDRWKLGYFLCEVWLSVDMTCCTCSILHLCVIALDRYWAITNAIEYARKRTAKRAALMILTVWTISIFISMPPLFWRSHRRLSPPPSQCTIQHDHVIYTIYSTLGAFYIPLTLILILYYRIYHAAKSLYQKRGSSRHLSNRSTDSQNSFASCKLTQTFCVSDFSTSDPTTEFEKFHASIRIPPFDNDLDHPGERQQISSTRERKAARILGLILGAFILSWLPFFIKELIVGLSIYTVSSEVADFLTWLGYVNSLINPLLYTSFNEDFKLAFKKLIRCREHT
Beta-3 adrenergic receptor (Homo sapiens), sequence (P13945 whole entry, looked up): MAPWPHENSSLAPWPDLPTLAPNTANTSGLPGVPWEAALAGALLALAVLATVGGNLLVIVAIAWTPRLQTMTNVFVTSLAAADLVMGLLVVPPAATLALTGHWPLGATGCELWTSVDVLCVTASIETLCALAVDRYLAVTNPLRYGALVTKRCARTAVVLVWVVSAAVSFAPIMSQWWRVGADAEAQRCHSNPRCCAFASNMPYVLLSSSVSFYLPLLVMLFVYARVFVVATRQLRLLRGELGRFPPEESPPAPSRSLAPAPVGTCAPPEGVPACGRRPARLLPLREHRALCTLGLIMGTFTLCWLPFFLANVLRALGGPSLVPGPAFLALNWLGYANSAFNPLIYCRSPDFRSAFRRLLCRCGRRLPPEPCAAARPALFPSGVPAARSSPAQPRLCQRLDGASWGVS
Muscarinic acetylcholine receptor M2 (Homo sapiens), sequence (P08172 whole entry): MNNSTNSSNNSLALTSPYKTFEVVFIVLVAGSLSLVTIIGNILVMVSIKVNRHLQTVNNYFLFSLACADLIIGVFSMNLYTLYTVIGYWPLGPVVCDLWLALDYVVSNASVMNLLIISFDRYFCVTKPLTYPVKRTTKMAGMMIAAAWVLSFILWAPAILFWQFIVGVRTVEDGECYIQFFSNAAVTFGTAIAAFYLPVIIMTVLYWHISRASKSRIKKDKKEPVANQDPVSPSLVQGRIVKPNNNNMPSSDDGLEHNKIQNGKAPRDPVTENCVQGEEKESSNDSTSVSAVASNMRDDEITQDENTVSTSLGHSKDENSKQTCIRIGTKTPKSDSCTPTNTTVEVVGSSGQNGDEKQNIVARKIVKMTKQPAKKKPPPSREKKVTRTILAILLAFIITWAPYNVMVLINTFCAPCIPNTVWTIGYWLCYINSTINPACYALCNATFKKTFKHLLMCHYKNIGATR
Muscarinic acetylcholine receptor M1 (Homo sapiens), sequence (P11229 whole entry): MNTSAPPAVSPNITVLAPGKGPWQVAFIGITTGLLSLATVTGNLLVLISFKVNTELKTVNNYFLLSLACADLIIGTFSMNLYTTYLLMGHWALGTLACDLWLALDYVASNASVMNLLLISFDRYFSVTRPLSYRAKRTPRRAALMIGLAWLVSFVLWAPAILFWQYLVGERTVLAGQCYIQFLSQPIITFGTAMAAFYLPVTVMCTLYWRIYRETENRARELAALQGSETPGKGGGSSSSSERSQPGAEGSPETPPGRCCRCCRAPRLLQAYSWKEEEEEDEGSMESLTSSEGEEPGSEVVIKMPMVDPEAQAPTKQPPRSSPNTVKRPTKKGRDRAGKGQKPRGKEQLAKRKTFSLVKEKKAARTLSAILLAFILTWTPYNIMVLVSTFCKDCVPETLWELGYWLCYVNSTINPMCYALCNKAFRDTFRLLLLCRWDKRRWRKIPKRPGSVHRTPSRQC
5-hydroxytryptamine receptor 2B, sequence (P41595 whole entry): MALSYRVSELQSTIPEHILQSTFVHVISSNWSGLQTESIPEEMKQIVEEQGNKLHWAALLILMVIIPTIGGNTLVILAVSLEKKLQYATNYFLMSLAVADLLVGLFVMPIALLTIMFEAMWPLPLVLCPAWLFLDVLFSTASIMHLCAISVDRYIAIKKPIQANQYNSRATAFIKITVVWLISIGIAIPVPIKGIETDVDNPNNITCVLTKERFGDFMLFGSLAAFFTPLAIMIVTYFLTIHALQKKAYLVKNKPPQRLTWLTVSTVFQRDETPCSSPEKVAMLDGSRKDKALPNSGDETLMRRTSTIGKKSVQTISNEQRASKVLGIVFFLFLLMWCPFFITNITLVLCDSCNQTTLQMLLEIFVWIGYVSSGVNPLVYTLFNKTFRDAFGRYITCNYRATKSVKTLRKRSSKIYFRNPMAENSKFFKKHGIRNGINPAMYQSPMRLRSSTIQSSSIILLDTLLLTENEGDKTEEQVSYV
Alpha-1D adrenergic receptor, sequence (P25100 whole entry): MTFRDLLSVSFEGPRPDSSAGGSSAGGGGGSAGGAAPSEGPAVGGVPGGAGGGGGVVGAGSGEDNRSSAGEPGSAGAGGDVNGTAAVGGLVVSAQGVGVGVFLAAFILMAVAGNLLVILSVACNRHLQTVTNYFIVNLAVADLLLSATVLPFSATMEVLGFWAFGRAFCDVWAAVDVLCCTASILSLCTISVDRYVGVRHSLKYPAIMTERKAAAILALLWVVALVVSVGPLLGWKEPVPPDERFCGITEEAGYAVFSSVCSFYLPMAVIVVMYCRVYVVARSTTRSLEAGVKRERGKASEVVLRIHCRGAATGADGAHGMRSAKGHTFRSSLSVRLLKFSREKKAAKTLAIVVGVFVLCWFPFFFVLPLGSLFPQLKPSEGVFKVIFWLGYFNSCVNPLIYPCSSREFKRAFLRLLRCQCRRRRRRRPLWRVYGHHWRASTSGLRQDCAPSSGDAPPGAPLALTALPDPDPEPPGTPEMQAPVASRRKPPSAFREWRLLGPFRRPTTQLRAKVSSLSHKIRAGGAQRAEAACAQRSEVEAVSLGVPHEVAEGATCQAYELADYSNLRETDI
Alpha-2A adrenergic receptor, sequence (P08913 whole entry): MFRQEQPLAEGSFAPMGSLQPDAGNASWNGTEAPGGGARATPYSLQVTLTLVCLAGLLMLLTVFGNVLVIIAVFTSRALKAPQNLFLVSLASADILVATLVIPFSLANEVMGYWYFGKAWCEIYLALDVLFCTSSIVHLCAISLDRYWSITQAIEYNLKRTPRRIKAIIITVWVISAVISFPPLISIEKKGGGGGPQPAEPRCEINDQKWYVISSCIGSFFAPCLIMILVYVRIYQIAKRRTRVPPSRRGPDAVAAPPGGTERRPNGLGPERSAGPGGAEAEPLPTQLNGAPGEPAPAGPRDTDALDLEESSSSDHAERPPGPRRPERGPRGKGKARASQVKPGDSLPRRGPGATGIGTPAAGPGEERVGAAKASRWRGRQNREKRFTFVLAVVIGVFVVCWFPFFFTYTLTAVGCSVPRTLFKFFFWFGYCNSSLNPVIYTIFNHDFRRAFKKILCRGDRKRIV

With COc1ccc(CCN(CCCc2ccccc2)CCc2ccc3c(c2)OCO3)cc1OC the Ki [1] was 363 nM, the Ki (D(2) dopamine receptor) was 1730 nM and the Activity [2] was “inactive”. The Activity [3] was “inactive”, the Ki [4] was 102 nM and the Ki [5] was 700 nM. For the same compound, the Activity [6] was “inactive”, the Ki (Mu-type opioid receptor) was 341 nM and the Activity [7] was “inactive”. For the same compound, the Activity [8] was “inactive”, the Ki [9] was 467 nM and the Activity [10] was “inactive”. The Activity [11] was “inactive”, the Activity [12] was “inactive” and the Ki [13] was 176 nM. For the same compound, the Ki [14] was 498 nM, the Activity [15] was “inactive” and the Ratio Ki (HEK293 [16]) was 15. For the same compound, the Ratio Ki (HEK293 [17]) was 6, the Ki [18] was 1000 nM and the Activity [19] was “inactive”. For the same compound, the Ki [20] was 242 nM, the Ki (D(4) dopamine receptor) was 853 nM and the Activity [21] was “inactive”. The Activity (Rattus norvegicus) was “inactive”, the Ki [22] was 399 nM and the IC50 [23] was 794 nM. It also gave a Ki [24] of 821 nM and a Ki [25] of 165 nM.
